Experiments:
[1] = target: T1, human dopamine D3 receptors (Homo sapiens, UniProt P35462); test: Dopamine D3 receptor binding assay ([3H]spiperone, CHO cell membranes); conditions: for Ki: human D3 receptors in CHO cells, 0.2 nM [3H]spiperone, mean ± SEM, read-out: Affinity Ki (D3); for Selectivity Ki(D2)/Ki(D3): ratio of Ki(D2) to Ki(D3)
T1 construct: expressed in transfected cells
Method: (§1) Compounds synthesized in Examples A, B, C and D were assayed to test their affinity for dopamine D3 and D2 receptors.
(§2) METHODS: Dopamine D2S and D3 Receptor Binding Assays
Human D3 receptors stably expressed in CHO cells were used as described by Sokoloff et al. (Sokoloff, P. et al., Eur. J. Pharmacol. 1992, 225, 331-337). The cell line was cultured in Dulbecco's modified Eagle's medium supplemented with 2 mM glutamine, and 10% dialyzed fetal bovine serum, and were grown in an atmosphere of 5% CO2 at 37° C. (Gibco™).
(§3) Human D2S- and D3 receptors expressing cell lines were grown to confluence. The medium was removed, and the cells were washed with 10 ml PBS buffer (140 mM NaCl, 3 mM KCl, 1.5 mM KH2PO4, 8 mM Na2HPO4, pH 7.4) at 4° C. After removing the wash buffer, the cells were scraped from the flasks into 15 ml of ice-cold media, and centrifuged at 3,000 rpm for 10 minutes at 4° C. After centrifugation the medium was removed and the […] resuspended in ice-cold Tris-HCl buffer containing 5 mM MgCl2, pH 7.4 and disrupted with a Polytron and centrifuged at 20,000 rpm, for 30 minutes at 4° C. The pellet was resuspended by sonication in ice-cold Tris-HCl buffer (containing 5 mM MgCl2, pH 7.4), membrane aliquots were stored at −70° C. Determination of membrane protein was carried out by the method of Bradford (Bradford, M. M. Anal Biochem 1976, 72, 248-54).
(§4) Cell membranes containing human D2S and D3 receptors from CHO cells were thawed, rehomogenized with sonication at 4° C. in Tris-HCl, pH 7.4 containing 120 mM NaCl, 5 mM KCl, 2 mM CaCl2 and 1 mM MgCl2 (incubation buffer), and incubated with 0.2 nM [^3H]spiperone (106 Ci·mmol^−1, Amersham Biosciences, Freiburg, Germany), and drug diluted in incubation buffer. Non-specific binding was determined in the presence of 10 μM BP 897 ((Wermuth, C. G. et al. in Chem. Abstr. (Eur. Pat. 0779284, 1997)). Incubations were run at 25° C. for 120 min, and terminated by rapid filtration through PerkinElmer GF/B glass fibre filters (PerkinElmer Life Sciences, Rodgau, Germany) coated in 0.3% polyethylenimine (Sigma-Aldrich, Taufkirchen, Germany) using an Inotech cell harvester (Inotech AG, Dottikon, Switzerland). Unbound radioligand was removed with four washes of 1 ml of ice-cold 50 mM Tris-HCl buffer, pH 7.4, containing 120 mM NaCl. The filters were soaked in 9 ml Beta plate scint scintillator and counted using a PerkinElmer MicroBeta®Trilux scintillation counter (PerkinElmer Life Sciences). Competition binding data were analyzed by the software GraphPad Prism™ (2000, version 3.02, San Diego, Calif., USA), using non-linear least squares fit. For detailed screening the compounds have been tested at seven concentrations in triplicate carrying out three to five separate binding experiments for human dopamine D2S and for human dopamine D3 receptors and expressed as mean±standard error of the mean (SEM). Ki values were calculated from the IC50 values according to Cheng-Prusoff equation (Cheng, Y. C., Prusoff, W. H. Biochem. Pharmacol. 1973, 22, 3099-3108.).

[2] = target: T2, recombinant human D2(short) dopamine receptor (Homo sapiens, UniProt P14416); test: Dopamine D2S receptor binding assay ([3H]spiperone, CHO cell membranes); conditions: human D2S receptors in CHO cells, 0.2 nM [3H]spiperone, mean ± SEM; read-out: Affinity Ki (D2)
T2 construct: expressed in transfected cells; host or cells: CHO-D2S cells (per Hayes et al. 1992)
Method: as §1, §2
CHO-D2S cells, expressing the recombinant human D2(short) dopamine receptor gene, (Hayes, G. et al., J. Mol. Endocrinol. 1992, 6, 920-926) were grown in Dulbecco's modified Eagle's medium/nutrient mixture F12 1:1 mixture supplemented with 2 mM glutamine, 10% fetal bovine serum, and 10 μl·ml^−1 penicillin/streptomycin in an atmosphere of 5% CO2 at 37° C. (Gibco™, Karlsruhe, Germany).
as §3, §4

T2 sequence (P14416 1-414 isoform P14416-2): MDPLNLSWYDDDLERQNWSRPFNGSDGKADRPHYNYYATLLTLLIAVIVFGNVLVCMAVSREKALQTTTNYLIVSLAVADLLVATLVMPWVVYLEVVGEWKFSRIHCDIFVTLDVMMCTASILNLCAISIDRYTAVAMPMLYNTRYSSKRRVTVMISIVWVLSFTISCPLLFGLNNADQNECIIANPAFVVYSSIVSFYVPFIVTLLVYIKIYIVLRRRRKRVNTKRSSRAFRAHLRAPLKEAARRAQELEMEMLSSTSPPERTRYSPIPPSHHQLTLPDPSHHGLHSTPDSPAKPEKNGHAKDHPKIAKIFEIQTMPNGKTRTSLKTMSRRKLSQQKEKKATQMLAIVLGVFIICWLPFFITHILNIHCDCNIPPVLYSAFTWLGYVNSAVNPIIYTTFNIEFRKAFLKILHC
T1 sequence (P35462 whole entry): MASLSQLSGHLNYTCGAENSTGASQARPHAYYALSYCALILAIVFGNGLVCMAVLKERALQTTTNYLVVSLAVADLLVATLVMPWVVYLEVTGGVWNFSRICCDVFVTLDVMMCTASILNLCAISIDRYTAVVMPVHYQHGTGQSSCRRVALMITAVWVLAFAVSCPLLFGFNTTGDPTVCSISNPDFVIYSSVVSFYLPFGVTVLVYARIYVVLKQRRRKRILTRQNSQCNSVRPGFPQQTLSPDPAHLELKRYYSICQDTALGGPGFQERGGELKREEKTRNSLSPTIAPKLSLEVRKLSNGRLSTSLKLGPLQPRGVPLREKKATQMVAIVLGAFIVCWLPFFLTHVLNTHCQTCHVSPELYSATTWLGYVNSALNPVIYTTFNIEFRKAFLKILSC

Structure (SMILES) | Ki [1] | Selectivity Ki(D2)/Ki(D3) [1] | Ki [2]
O=C(NCCCCNC1CCc2ncsc2C1)c1ccc2ccccc2c1 (stereo not drawn) [Compound 2, Naphthalene-2-carboxylic acid [4-(4,5,6,7-tetrahydro-benzothiazol-6-ylamino)-butyl]-amide] | 147 ± 30 nM | 143 | 21000 ± 2550 nM
CN(CCCCNC(=O)c1ccc2ccccc2c1)C1CCc2ncsc2C1 (stereo not drawn) [Compound 3, Naphthalene-2-carboxylic acid {4-[methyl-(4,5,6,7-tetrahydro-benzothiazol-6-yl)-amino]-butyl}-amide] | 25.4 ± 9.6 nM | 151 | 3820 ± 1100 nM
CCN(CCCCNC(=O)c1ccc2ccccc2c1)C1CCc2ncsc2C1 (stereo not drawn) [Compound 4, Naphthalene-2-carboxylic acid {4-[ethyl-(4,5,6,7-tetrahydro-benzothiazol-6-yl)-amino]-butyl}-amide] | 2.7 ± 0.94 nM | 581 | 1570 ± 303 nM
C#CCN(CCCCNC(=O)c1ccc2ccccc2c1)C1CCc2ncsc2C1 (stereo not drawn) [Compound 7, Naphthalene-2-carboxylic acid {4-[prop-2-ynyl-(4,5,6,7-tetrahydro-benzothiazol-6-yl)-amino]-butyl}-amide] | 7.76 ± 1.37 nM | 1170 | 9080 ± 684 nM
CC#CCN(CCCCNC(=O)c1ccc2ccccc2c1)C1CCc2ncsc2C1 (stereo not drawn) [Compound 8, Naphthalene-2-carboxylic acid {4-[but-2-ynyl-(4,5,6,7-tetrahydro-benzothiazol-6-yl)-amino]-butyl}-amide] | 108 ± 40 nM | 77 | 8370 ± 3820 nM
O=C(NCCCCNC1CCc2ncsc2C1)c1cc2ccccc2s1 (stereo not drawn) [Compound 10, Benzo[b]thiophene-2-carboxylic acid [4-(4,5,6,7-tetrahydro-benzothiazol-6-ylamino)-butyl]-amide] | 292 ± 41 nM | 80 | 23400 ± 1220 nM
CN(CCCCNC(=O)c1cc2ccccc2s1)C1CCc2ncsc2C1 (stereo not drawn) [Compound 11, Benzo[b]thiophene-2-carboxylic acid {4-[methyl-(4,5,6,7-tetrahydro-benzothiazol-6-yl)-amino]-butyl}-amide] | 52.6 ± 5.1 nM | 65 | 3390 ± 388 nM
CCN(CCCCNC(=O)c1cc2ccccc2s1)C1CCc2ncsc2C1 (stereo not drawn) [Compound 12, Benzo[b]thiophene-2-carboxylic acid {4-[ethyl-(4,5,6,7-tetrahydro-benzothiazol-6-yl)-amino]-butyl}-amide] | 2.92 ± 0.48 nM | 856 | 2500 ± 463 nM
CCCN(CCCCNC(=O)c1cc2ccccc2s1)C1CCc2ncsc2C1 (stereo not drawn) [Compound 13, Benzo[b]thiophene-2-carboxylic acid {4-[propyl-(4,5,6,7-tetrahydro-benzothiazol-6-yl)-amino]-butyl}-amide] | 16 ± 6 nM | 141 | 2280 ± 105 nM
CCN(CCCCNC(=O)c1ccc2ncsc2c1)C1CCc2ncsc2C1 (stereo not drawn) [Compound 14, Benzothiazole-6-carboxylic acid {4-[ethyl-(4,5,6,7-tetrahydro-benzothiazol-6-yl)-amino]-butyl}-amide] | 5.61 ± 0.3 nM | 375 | 2100 ± 327 nM
CCCN(CCCCNC(=O)C=Cc1ccccc1)C1CCc2ncsc2C1 (stereo not drawn) [Compound 16, N-{4-[Propyl-(4,5,6,7-tetrahydro-benzothiazol-6-yl)-amino]-butyl}-cinnamoylamide] | 8.11 ± 1.23 nM | 495 | 4010 ± 383 nM
CCCN(CCCCNC(=O)c1cnc(-c2ccc(Cl)cc2)s1)C1CCc2ncsc2C1 (stereo not drawn) [Compound 19, 2-(4-Chloro-phenyl)-thiazole-5-carboxylic acid {4-[propyl-(4,5,6,7-tetrahydro-benzothiazol-6-yl)-amino]-butyl}-amide] | 83 ± 2 nM | 30 | 2520 ± 144 nM
CCCN(CCCCNC(=O)N1CCCCC1)C1CCc2ncsc2C1 (stereo not drawn) [Compound 21, Piperidine-1-carboxylic acid {4-[propyl-(4,5,6,7-tetrahydro-benzothiazol-6-yl)-amino]-butyl}-amide] | 6.46 ± 3.25 nM | 1152 | 7440 ± 2290 nM
CCCN(CCCCNC(=O)NC1CCCCC1)C1CCc2ncsc2C1 (stereo not drawn) [Compound 22, 1-Cyclohexyl-3-{4-[propyl-(4,5,6,7-tetrahydro-benzothiazol-6-yl)-amino]-butyl}-urea] | 2.97 ± 1.23 nM | 1642 | 4870 ± 1050 nM

Stronger by Ki [1], values ahead:

Ki [1] | Selectivity Ki(D2)/Ki(D3) [1] | Ki [2] | Structure (SMILES)
2.62 ± 0.16 nM | 582 | 1530 ± 297 nM | CCCN(CCCCNC(=O)C1CCCCC1)C1CCc2ncsc2C1 (stereo not drawn) [Compound 20, Cyclohexanecarboxylic acid {4-[propyl-(4,5,6,7-tetrahydro-benzothiazol-6-yl)-amino]-butyl}-amide]
2.41 ± 1 nM | 184 | 445 ± 55 nM | CCCN(CCCCNC(=O)C=Cc1ccc(Cl)cc1Cl)C1CCc2ncsc2C1 (stereo not drawn) [Compound 17, 2,4-Dichloro-N-{4-[propyl-(4,5,6,7-tetrahydro-benzothiazol-6-yl)-amino]-butyl}-cinnamoylamide]
2.26 ± 0.79 nM | 746 | 1680 ± 382 nM | CCCN(CCCCNC(=O)c1ccccc1)C1CCc2ncsc2C1 (stereo not drawn) [Compound 1, N-{4-[Propyl-(4,5,6,7-tetrahydro-benzothiazol-6-yl)-amino]-butyl}-benzamide]
2.25 ± 1.24 nM | 1422 | 3190 ± 1470 nM | CCCN(CCCCNC(=O)N1Cc2ccccc2C1)C1CCc2ncsc2C1 (stereo not drawn) [Compound 27, 1,3-Dihydro-isoindole-2-carboxylic acid {4-[propyl-(4,5,6,7-tetrahydro-benzothiazol-6-yl)-amino]-butyl}-amide]
1.72 ± 0.22 nM | 1262 | 2170 ± 566 nM | CCCN(CCCCNC(=O)C1CCc2ccccc2C1)C1CCc2ncsc2C1 (stereo not drawn) [Compound 23, 1,2,3,4-Tetrahydro-naphthalene-2-carboxylic acid {4-[propyl-(4,5,6,7-tetrahydro-benzothiazol-6-yl)-amino]-butyl}-amide]
1.52 ± 0.55 nM | 1189 | 1810 ± 376 nM | CCCN(CCCCNC(=O)C1Cc2ccccc2C1)C1CCc2ncsc2C1 (stereo not drawn) [Compound 26, Indane-2-carboxylic acid-{4-[propyl-(4,5,6,7-tetrahydrobenzothiazol-6-yl)amino]butyl}amide]
1.16 ± 0.17 nM | 751 | 873 ± 388 nM | CCCN(CCCCNC(=O)c1ccc2ccccc2c1)C1CCc2ncsc2C1 (stereo not drawn) [Compound 5, Naphthalene-2-carboxylic acid {4-[propyl-(4,5,6,7-tetrahydro-benzothiazol-6-yl)-amino]-butyl}-amide]
0.95 ± 0.2 nM | 486 | 459 ± 83 nM | C=CCN(CCCCNC(=O)c1ccc2ccccc2c1)C1CCc2ncsc2C1 (stereo not drawn) [Compound 6, Naphthalene-2-carboxylic acid {4-[allyl-(4,5,6,7-tetrahydro-benzothiazol-6-yl)-amino]-butyl}-amide]
0.65 ± 0.09 nM | 531 | 347 ± 133 nM | CCCN(CCCCNC(=O)c1ccc2ncsc2c1)C1CCc2ncsc2C1 (stereo not drawn) [Compound 15]
0.57 ± 0.04 nM | 1479 | 842 ± 35 nM | CCCN(CCCCNC(=O)C=Cc1ccc(F)cc1)C1CCc2ncsc2C1 (stereo not drawn) [Compound 18, 4-Fluoro-N-{4-[propyl-(4,5,6,7-tetrahydro-benzothiazol-6-yl)-amino]-butyl}-cinnamoylamide]
